Data published in patent US9333233B2, “Methods and compositions for the delayed treatment of stroke” (TARIX PHARMACEUTICALS LTD., priority 2014, dated 2016).

Tests used:
Type in all cases: in vivo
[1] = system: rat Transient Middle Cerebral Artery Occlusion (tMCAO) model; assay: Neuroscore (Modified Neurological Rating Scale, mNRS) in rat tMCAO stroke model
Experimental: (§1) Transient middle cerebral artery occlusion was performed according to the method described R. Schmid-Eisaesser et al. Briefly, the right CCA (Common Carotid Artery) was exposed through a midline neck incision and carefully dissected free from surrounding nerves and fascia —from its bifurcation to the base of the skull. The occipital artery branches of the ECA (External Carotid Artery) were then isolated, and these branches were dissected and coagulated. The ECA was dissected further distally and coagulated along with the terminal lingual and maxillary artery branches, which was then divided. The ICA (Internal Carotid Artery) was isolated and carefully separated from the adjacent vagus nerve, and the pterygopalatine artery was ligated close to its origin with a 5-0 nylon suture (SMI, Belgium). Next a 4-0 silk suture was tied loosely around the mobilized ECA stump, and a 4 cm length of 4-0 monofilament nylon suture (the tip of the suture was blunted by using a flame, and the suture was coated with polylysine, prior to insertion) was inserted through the proximal ECA into the ICA and thence into the circle of Willis, effectively occluding the MCA. The surgical wound was closed and the animals were returned to their cages to recover from anesthesia. One hour and a half after occlusion rats were re-anesthetized, the monofilament was withdrawn to allow reperfusion, the surgical wound was closed and rats were returned to their cages.
Animals were subjected to the mNSS test (Neuroscore) at Day 2, 24 hours post reperfusion. Only animals with an overall score of ≧10 were included in this Example.
Each animal was also subjected to a neuroscore test. The Modified Neurological Rating Scale (mNRS), or Neuroscore, was performed before the operation, on Day 2 and on Day 15, Day 22, Day 29, Day 36 Day 43 and Day 50. The individual making the behavioral assessments was unaware of the drug/dose given (blind test). A total Neuroscore of 18 was possible, with higher scores correlating to worse functioning.
(§2) As in Example 1, each animal was subjected to a neuroscore test. The Modified Neurological Rating Scale (mNRS), or Neuroscore, was performed before the operation as described in Example 1 on day 2, day 29, day 43, day 50, day 57, day 64 and day 71. The individual making the behavioral assessments was unaware of the drug/dose given (blind test).
as §2, with “Examples 1 and 2,” for “Example 1,”, “64, day 71. Day 78,” for “64”, “85.” for “71.”

[2] = system: rat Transient Middle Cerebral Artery Occlusion (tMCAO) model; assay: Stepping test (forelimb akinesia) in rat tMCAO stroke model
Experimental: as §1
Animals were tested for forelimb akinesia in a stepping test (ST). The animal was held by its hind limbs fixed with one hand and the forelimb not to be monitored with the other, while the unrestrained fore-paw touched the table. The number of adjusting steps were counted while the animal is moved, sideways along the table surface (85 cm in approximately five seconds), in the forehand & backhand direction for both forelimbs.
Animals were also tested for forelimb akinesia in a stepping test (ST) as described in Example 1 on days 29, 43, 50, 57, 64 and 71.
Animals were also tested for forelimb akinesia in a stepping test (ST) as described in Example 1 on days 29, 43, 50, 57, 64, 71, 78 and 85.

[3] = system: rat Transient Middle Cerebral Artery Occlusion (tMCAO) model; assay: Limb placement test in rat tMCAO stroke model
Experimental: as §1
Animals were subjected to a limb placement test. The limb placing tests were divided into both forelimb and hindlimb tests. For the forelimb-placing test, the examiner held the rat close to a tabletop and scored the rat's ability to place the forelimb on the tabletop in response to whisker, visual, tactile or proprioceptive stimulation. Similarly, for the hindlimb placing test, the examiner assessed the rat's ability to place the hindlimb on the tabletop in response to tactile and proprioceptive stimulation. Separate sub-scores are obtained for each mode of sensory input and added to give total scores (for the forelimb placing test: 0=normal, 12=maximally impaired; for the hindlimb placing test: 0=normal; 6=maximally impaired). Scores were given in half-point increments (see below).
Forelimb placing test (0-12);
Visual placing (forward (0-2), sideways (0-2))
Tactile placing (dorsal (0-2), lateral (0-2))
Proprioceptive placing (0-2)
Animals were also subjected to a limb placement test as described in Example 1 on days 29, 43, 50, 57, 64 and 71.
Animals were also subjected to a limb placement test as described in Example 1 on days 29, 43, 50, 57, 64, 71, 78 and 85.

[4] = system: rat Transient Middle Cerebral Artery Occlusion (tMCAO) model; assay: Body swing test in rat tMCAO stroke model
Experimental: as §1
Animals were also subjected to a body swing test. Each rat was held approximately one inch from the base of its tail. It was then elevated to an inch above a surface of a table. The rat was held in the vertical axis, defined as no more than 10° to either the left or the right side. A swing was recorded whenever the rat moved its head out of the vertical axis to either side. Before attempting another swing, the rat had to return to the vertical position for the next swing to be counted, Twenty (20) total swings were counted. A normal rat typically has an equal number of swings to either side. Following focal ischemia, the rat tends to swing to the contralateral side (left side in this Example). Body swing scores were expressed as a percentage of […] over total swings.
Animals were also subjected to a body swing test as described in Example 1 on days 29, 43, 50, 57, 64 and 71.
Animals were also subjected to a body swing test as described in Example 1 on days 29, 43, 50, 57, 64, 71, 78 and 85.

[5] = system: rat Transient Middle Cerebral Artery Occlusion (tMCAO) model; assay: Blood vessel diameter (Flow-R Laser Doppler) in rat tMCAO stroke model
Experimental: as §1
(§3) Evaluation of the blood flow in the brain cortex and vessel constriction was carried out using a Flow-R Laser Doppler system, in which intracranial blood flow and vessel diameter (constriction/dilation) was monitored.

[6] = system: rat Transient Middle Cerebral Artery Occlusion (tMCAO) model; assay: Blood flow in the brain cortex (Flow-R Laser Doppler) in rat tMCAO stroke model; details: for enhanced blood flow as compared to vehicle controls: Example 1 first phase, day 50
Experimental: as §1, §3

[7] = system: rat Transient Middle Cerebral Artery Occlusion (tMCAO) model; assay: Cylinder test of motor function in rat tMCAO stroke model; details: Example 2; 50 μg/kg SC daily from day 29; day 57 (day 26 all animals ~0.3; vehicle day 57 ~0.4)
Experimental: Transient middle cerebral artery occlusion was performed according to the method described R. Schmid-Eisaesser et al. Briefly, the right CCA (Common Carotid Artery) was exposed through a midline neck incision and carefully dissected free from surrounding nerves and fascia —from its bifurcation to the base of the skull. The occipital artery branches of the ECA (External Carotid Artery) were then isolated, and these branches were dissected and coagulated. The ECA was dissected further distally and coagulated along with the terminal lingual and maxillary artery branches, which was then divided. The ICA (Internal Carotid Artery) was isolated and carefully separated from the adjacent vagus nerve, and the pterygopalatine artery was ligated close to its origin with a 5-0 nylon suture (SMI, Belgium). […]
The number of wall contacts performed independently with the left and right forepaw were counted and noted up to a total of 20 wall contacts per animal per session, and only supporting contacts were counted (i.e., full appositions of the paws with open digits to the cylinder walls).

[8] = Example 3, SC daily from day 29, TXA127 100-1,000 μg/kg, TXA302 1-500 μg/kg, by day 43, maintained through day 85
[9] = Example 3, SC daily from day 29, TXA127 100-1,000 μg/kg, TXA302 1-500 μg/kg, by day 43, maintained through Day 85
[10] = Example 3, SC daily from day 29, TXA127 100-1,000 μg/kg, TXA302 1-500 μg/kg, by day 43, maintained or improved through day 85
[11] = Example 3, SC daily from day 29, TXA127 100-1,000 μg/kg, TXA302 1-500 μg/kg, by day 43
[12] = Example 1 second phase, 500 ug/kg SC from day 51, measured day 108

Substance: Asp^1-Arg^2-Val^3-Tyr^4-Ile^5-His^6-Pro^7 (DRVYIHP; listed as Homo sapiens) [TXA127]
- neuroscore as compared to vehicle control animals ([1]; Example 1 first phase, 100, 300, 500 μg/kg SC daily or Alzet pump, started 24 hours after tMCAO, all treatment groups by day 15, maintained through day 50): statistically significant reduction in neuroscore
- neuroscore as compared to vehicle control animals ([1]; Example 1 second phase, 500 ug/kg SC daily, first treatment day 51 after tMCAO, by day 65): statistically significant improvement
- neuroscore as compared to vehicle control animals [1, 8]: statistically significant reduction in neuroscore
- performance in stepping test as compared to vehicle control animals ([2]; Example 1 first phase, 100, 300, 500 μg/kg SC or Alzet, started 24 hours after tMCAO, all treatment groups by day 22): significant improvement in performance
- performance in stepping test as compared to vehicle control group ([2]; Example 1 second phase, 500 ug/kg SC daily from day 51, by day 65, increasing significance by day 86): statistically significant improvement in performance
- performance in stepping test as compared to vehicle control animals [2, 9]: significant improvement in performance
- performance in forelimb placement test as compared to vehicle control ([3]; Example 1 first phase, 100, 300, 500 μg/kg SC or Alzet, started 24 hours after tMCAO, all treatment groups by day 15, continued through day 50): statistically significant improvements in performance
- performance in forelimb placement test ([3]; Example 1 second phase, 500 ug/kg SC daily from day 51, beginning on day 72, trend as early as day 58): statistically significant improvement in performance
- performance in limb placement test as compared to vehicle control animals [3, 10]: statistically significant improvements in performance
- performance in body swing test ([4]; Example 1 first phase, 100, 300, 500 μg/kg SC or Alzet, started 24 hours after tMCAO, by day 15, statistical significance by day 22 in some groups, day 29 in all treatment groups): improvement in performance
- performance in body swing test ([4]; Example 1 second phase, 500 ug/kg SC daily from day 51, as early as day 58, maintained throughout observation period): trend toward improved performance
- performance in body swing test [4, 11]: statistically significant improvement in performance
- improvement in blood vessel diameter as compared to vehicle controls ([5]; Example 1 first phase, continuous infusion via Alzet pump, day 50): ~40%
- enhanced blood vessel diameter, larger than vehicle control animals ([5]; Example 1 first phase, subcutaneously administered, each treatment group (100, 300, 500 μg/kg), day 50): approximately 20%
- vessel diameter as compared to vehicle control group [5, 12]: improved
- enhanced blood flow as compared to vehicle controls ([6]; continuous infusion via Alzet pump): ~30%
- enhanced blood flow as compared to vehicle controls ([6]; subcutaneously administered, each treatment group): ~35%
- blood flow ratio as compared to vehicle control group [6, 12]: improved

Substance: Ala^1-Arg^2-Val^3-Ser^4-Ile^5-His^6-Cys^7 (ARVSIHC) [TXA302, angiotensin (1-7) peptide]
- neuroscore as compared to vehicle control animals ([1]; Example 2, 50 μg/kg SC daily from day 29 (28 days post-tMCAO), by day 43, maintained through day 71): statistically significant reduction in neuroscore
- neuroscore as compared to vehicle control animals [1, 8]: statistically significant reduction in neuroscore
- performance in stepping test as compared to vehicle control animals ([2]; Example 2, 50 μg/kg SC daily from day 29, by day 43, maintained through Day 71): significant improvement in performance
- performance in stepping test as compared to vehicle control animals [2, 9]: significant improvement in performance
- performance in limb placement test as compared to vehicle control animals ([3]; Example 2, 50 μg/kg SC daily from day 29, by day 43, maintained or improved through day 71): statistically significant improvements in performance
- performance in limb placement test as compared to vehicle control animals [3, 10]: statistically significant improvements in performance
- performance in body swing test ([4]; Example 2, 50 μg/kg SC daily from day 29, by day 50, maintained through Day 71): statistically significant improvement in performance
- performance in body swing test [4, 11]: statistically significant improvement in performance
- cylinder test ratio of left paw to right paw contacts [7]: ~0.75
